The subject of test [1] is 5 mm diameter excisional skin wounds. As to the kind of experiment: Small (5 mm) excisional skin wounds in adult mice, ACT 1 to ACT 5. The settings on record: for closure, inflammation, healing and scarring of injuries: 100 μM in pluronic gel, 50-60 μl, applied at 0 and 24 hours, 240 hour time course (10 days), vs gel without peptide; for wound closure rates (area of open wound as % of unclosed wound relative to the control): ~5 mice per condition, Mann-Whitney U-test over the time course. The format is in vivo, mouse. The protocol:
Anesthetized adult mice had 2 small (5 mm diameter) excisional skin wounds made by fine surgical scissors on the neck and (upper) back. The boundaries of the injuries were demarcated by a 5 mm wide circular template cut in a plastic sheet. 50-60 μl of a solution of 20% pluronic gel containing either no (control) or one of the ACT peptides (ACT 2-SEQ ID NO: 1, ACT 1-SEQ ID NO:2, ACT 3-SEQ ID NO:3, ACT 4-SEQ ID NO:4, ACT 5-SEQ ID NO:5) dissolved at concentrations of 100 μM were then applied to the excisional injuries. Control or ACT peptide-containing gel was applied subsequently 24 hours after the initial application. No further applications of control and ACT peptide-containing gel were made after the second application. […] Note that the same wound on the same animal is shown at the different time points during the healing time course. Anesthetized adult mice had 2 small (5 mm diameter) excisional skin wounds made by fine surgical scissors on the neck and (upper) back. The boundaries of the injuries were demarcated by a 5 mm wide circular template cut in a plastic sheet. 50-60 μl of a solution of 30% pluronic gel containing either no (control) or one of the ACT peptides (ACT 2—SEQ ID NO:1, ACT 1—SEQ ID NO:2, ACT 3—SEQ ID NO:3, ACT 4—SEQ ID NO:4, ACT 5—SEQ ID NO:5) dissolved at concentrations of 100 μM were then applied to the excisional injuries. Control or ACT peptide-containing gels were applied subsequently 24 hours after the initial application. No further applications of control and ACT peptide-containing gel were made after the second application. […] Note that the same wound on the same animal is shown at the different time points during the healing time course. The area of open wound was measured during the time course using NIH image according to standard protocols on multiple (˜5 mice per control or treatment condition) adult mice. These individual area measurements were then normalized to (i.e., divided by) the average area measured for the control injuries for a given time point, multiplied by 100 to give a % of unclosed wound relative to the control and then plotted against time. A Mann-Whitney U-test was used to statistically assess the effects of ACT peptides over the time course. […] These treatments provided results with significant p values.

The next test relates to brain penetration injury. As to the kind of experiment: Penetration injury of brain in adult rat with hollow fiber membrane (HFM) implant. Format: in vivo. The protocol:
(b) and (c) show low magnification survey views of sections of brain tissue (cortex) surrounding hollow fiber membrane (HFM) implants filled with ACT peptide (100 μM) plus vehicle gel (b) or collagen vehicle gel alone as control (c). In the control tissue (c), a high density of immunolabeled GFAP-positive astrocytes is observed near the site of injury caused by the HFM. The density of these cells appears to diminish slightly distal from the injury. […] Indeed, the levels of GFAP positive cells are not dissimilar to those seen in normal uninjured brain tissue. The regions of tissue within the white rectangles in figures (b) and (c) are shown at higher magnification in (d) and (e) respectively. In the brain injury treated by ACT peptide (d), it can be seen that GFAP-positive astrocytes are not only less numerous, but are also smaller than those seen in the control injury (e).
(a) and (b) show low magnification survey views of sections of brain tissue (cortex) surrounding HFM implants (implant or injury border is shown by arrows) filled with control collagen vehicle gel or ACT peptide plus vehicle gel at 1 week following brain penetration injury. In the control tissue (b), a high density of immunolabeled GFAP-positive astrocytes and a low density of NeuN immunolabeled neurons are observed near the site of injury caused by the HFM. The density of these cells appears to diminish and increase, respectively, distal from the HFM. […] The areas in (a) and (b) proximal to the HFMs are shown at high magnification views in (c) and […], respectively. Again, in the control tissue (d) a striking increase in the density of GFAP-positive astrocytes and a reduced density of NeuN-positive neurons is observed compared to ACT peptide treated tissue (c). A complementary pattern is observed near the HFM containing ACT peptide, with NeuN positive neurons predominating over astrocytes (c).
Anesthetized adult rats were positioned in a stereotaxic apparatus. A midline incision was made on the scalp to expose the skull. A stereotaxic drill was sighted 2 mm posterior to the bregma and 2 holes were drilled with a 1 mm spherical bit, each at 2.5 mm to the right and left of the bregma, and 3.5 mm below the dura. A cerebral lesion was made by inserting an 18-gauge needle. The coordinates were determined from the atlas by Paxinos and Watson (1986). The hollow fiber membrane (HFM) was inserted in the hole and external skin sutures were placed to cover the stab. The ACT peptide was dissolved at 100 μM concentration in a 2% collagen vehicle solution contained within the HFM. […] Reactive astrocytosis associated with inflammation and subsequently with glial scar formation follows a well characterized time course after brain injury in rodent models (Norenberg, 1994; Fawcett and Asher, 1999). […]

Test [2] relates to 5 mm-diameter excisional skin wounds. In words: Quantitative assessment of wound closure, tissue regeneration and tensile strength of 5 mm excisional skin wounds. The format is in vivo, mouse. From the text:
ACT peptide (n=12) and control (n=8) 5 mm-diameter excisional skin wounds were generated on adult mice as described above. Quantitative assessments of wound closure rate, counts of regenerated hair follicles and tensile strength measurements were then undertaken on the wounded skin at time points up to 90 days following the initial insult. […] Similarly, at 10 days, when most wounds were nearing completion of closure, a highly significant difference was still maintained such that ACT peptide-treated wounds were on average 43% smaller than control wounds. […] Studies were undertaken of the mechanical properties of healed 5 mm diameter excisional wounds at 1 month and 3 months following injury. For mechanical property measurements, the skin samples were obtained after sacrificing the animal and evaluated using a MTS 858 Mini Bionix (MTS Systems Corporation, MN, USA) equipped with a 5 kg load cell. During measurement the skin sample was extended to break at a rate of 0.5 mm/s. Force and extension was measured at break. The tensile strength (stress) and extension to break (strain) was calculated as follows, Stress (N/mm^2)=Force at break (N)/cross-sectional area of sample (mm^2). Strain (%)=[Increase in length at break (mm)/Original length (mm)]×100. Stress and strain calculations for each wounded skin sample was normalized to a normal skin sample from a nearby area collected from the same animal. […] At 3 months, normalized stress to break of peptide-treated wound skin was on average double that of control wounded skin, although the high variance within the treatment group precluded significant mean separation from the control. […] Further, significant improvements in extensibility of peptide-treated wounds were found. […] By contrast, control wounds at 3 months remained only 60% as extensible as normal skin.

Another test has as its system NIH-3T3 cells. As to the kind of experiment: In vitro scratch injury of NIH-3T3 monolayer (repopulation, PCNA immunolabeling). The following applies: 30 μM, 24 hours after scratch. The format is cell-based. The protocol: An NIH-3T3 monolayer was pre-treated with ACT 1 peptide (SEQ ID NO:2) for 24 hrs, and “scratch-injured” with a p200 pipette tip. The “scratch injury” was subsequently allowed to “heal” for 24 hours in the presence of (a, b) 30 μM ACT 1 peptide (SEQ ID NO:2), (c, d) 30 μM non-active control peptide (SEQ ID NO: 55), or (e, f) vehicle control solution containing no ACT peptide or control peptide. […] The repopulation of the “scratch injury” occurs in part via migration of the transformed cells crawling into the “scratch injury” area. Figures (b), (d) and (f) show proliferating cell nuclear antigen (PCNA) immunolabeling of cells in the “scratch injury” or at the injury edge.
NIH-3T3 fibroblasts were “scratch injured” and subject to the continuous presence of 30 μM ACT 1 peptide (SEQ ID NO:2) for 24 hours or the control conditions as outlined in FIG. 2. […] The cells have been labeled with fluorescent phalloidin to aid visualization. ACT peptide-treated cells show low levels of repopulation of the scratch injury area (white double headed arrows).
NIH-3T3 cells were grown over 2-3 days until forming a near-confluent monolayer on a tissue culture dish according to standard protocols and the monolayer was then pre-treated with ACT 1 peptide (SEQ ID NO:2) for 24 hrs, and “scratch-injured” with a p200 pipette tip. The “scratch injury” was subsequently allowed to repopulate for 24 hours in the presence of 30 μM ACT 1 peptide (SEQ ID NO:2) dissolved in the culture media (FIG. 2a, b) or in presence of two control conditions (FIG. 2c-f). In the first control condition, the “scratch-injured” cells were allowed to repopulate for 24 hours in the presence of a non-active control peptide (as in FIG. 1) dissolved in the culture media at a concentration of 30 μM (FIG. 2c, d). In the second control condition, phosphate buffered saline (PBS) was added to the culture media and the “scratch-injured” cells were allowed to repopulate in the presence of this vehicle control solution containing no ACT peptide or control peptide (FIG. 2e, f). […] The repopulation of the “scratch injury” occurs in part via migration of the transformed cells crawling into the “scratch injury” area. Figures (FIGS. 2b, d, and f) show proliferating cell nuclear antigen (PCNA) immunolabeling of cells in the “scratch injury” or at the injury edge.
The cells were labeled with fluorescent phalloidin to aid visualization. ACT peptide-treated cells show low levels of repopulation of the scratch injury area (white double headed arrows).

Ends that are not written are not given here.

Turning to “KARSDDLSV [ACT 5, 9 amino acids of the carboxy terminus of human Cx40]”, the “closure, inflammation, healing and scarring of injuries” value (“closure, inflammation” for short) in test [1] was “closed faster, were significantly less inflamed in appearance, healed faster and scarred less”. For the same sequence, the “wound closure rates (area of open wound as % of unclosed wound relative to the control)” value in test [1] (100 μM) is on record as “significantly improved wound closure rates”.

Regarding RPRPDDVPV [ACT 4], in test [1], the “closure, inflammation” value is listed as “modest improvement in healing over the control”. In test [1] (100 μM), the “wound closure rates (area of open wound as % of unclosed wound relative to the control)” value is listed as “more modest, although consistent, improvement”.

In the case of “ACT peptide: alpha Connexin carboxy-Terminal polypeptide used in brain injury and Example 4 studies; sequence not stated there (RQPKIWFPNRRKPWKKRPRPDDLEI; not fully specified (N-terminus))”, in the test with brain penetration injury (100 μM in 2% collagen vehicle within HFM, 1 week after injury, vs collagen vehicle gel), the “density of GFAP-positive astrocytes adjacent the HFM” value is reported as “much lower density”. Further, the “neurons in the process of fission” value in the test on brain penetration injury (100 μM in HFM, 1 week, high magnification view, relative to the control) is given as “high frequency of neurons in the process of fission”. Also, the “numbers of NeuN immunolabeled neurons proximal to the HFM” value in the test on brain penetration injury (100 μM in HFM, 1 week, vs control) was “higher numbers”. In addition, the “size of GFAP-positive astrocytes” value in the test on brain penetration injury (100 μM in HFM, 1 week, vs control injury) is “smaller”. The “strain (extensibility) required to break wounds” value in test [2] (at 1 month, vs control wounds) was “modestly improved”. Further, in test [2] (at 3 months, normalized to normal skin, control wounds 60%), the “strain to break of peptide-treated wound skin, normalized to normal skin” value came to 90%. In addition, the “normalized stress to break of wound skin” value in test [2] (at 3 months, vs control wounded skin, not significant (high variance)) is given as “double”. In test [2] (at 10 days), the “increase in the number of regenerated hair follicles per unit area of the healed wound over control wounds” value was determined as 3.2 fold and the “wound size, smaller than control wounds (average)” value was 43%. For the same sequence, the “wound closure relative to control wounds” value in test [2] (within 24 hours of peptide treatment, n=12 vs control n=8) is “significantly enhanced”.

With “RQPKIWFPNRRKPWKIELDDPRPR (not fully specified (N-terminus)) [non-active control peptide, reference compound]”, the “proliferating cell nuclear antigen (PCNA) immunolabeling of cells in the scratch injury or at the injury edge” value in the test with NIH-3T3 cells was “brightly labeled proliferating cells seen”. Also, the “repopulation of the scratch injury area” value with NIH-3T3 cells (24 hrs pre-treatment) was “large numbers of cells”.

RPRPDDLEV [ACT 3]: the “closure, inflammation” value in test [1] was “closed faster, were significantly less inflamed in appearance, healed faster and scarred less”. The “size of improvement in wound closure over the control, compared among peptides” value in test [1] (100 μM, over the time course) was “most pronounced improvements over the control”. Further, the “wound closure rates (area of open wound as % of unclosed wound relative to the control)” value in test [1] (100 μM) was “significantly improved wound closure rates”.

For the sequence PSSRASSRASSRPRPDDLEI [ACT 2], the “closure, inflammation” value in test [1] was “closed faster, were significantly less inflamed in appearance, healed faster and scarred less”. Besides, in test [1] (100 μM), the “wound closure rates (area of open wound as % of unclosed wound relative to the control)” value is “significantly improved wound closure rates”.

The record behind these values is patent US7888319B2, “Compositions and methods for promoting wound healing and tissue regeneration” (MUSC Foundation for Research Development, priority 2004, dated 2011).
